In article PMC8910697, “Development of VPC-70619, a Small-Molecule N-Myc Inhibitor as a Potential Therapy for Neuroendocrine Prostate Cancer” (International Journal of Molecular Sciences, 2022):

Experiments:
[1] = system: N-Myc-Max transcription activity (LNCaP-NMYC cells); assay: Myc transcription assay (Cignal Myc reporter, luciferase) in LNCaP-NMYC cells; format: cell-based
In short: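 LNCaP-NMYC cells transfected with Cignal Myc luciferase reporter were treated 24 h with compounds at 5 µM or 10 µM. Read-out: inhibition of N-Myc-Max-driven reporter luminescence.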

IMR32 cells = assay: Cell viability (CellTiter-Glo), IMR32; format: cell-based; details: Homo sapiens, IMR-32
In short: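 IMR32 cells (10,000/well) and HO15.19 cells (2000/well), both in EMEM with 10% FBS, were seeded 24 h before 72 h exposure to serial compound dilutions starting at 25 μM. Viability was read by CellTiter-Glo luminescence to give IC50. Single-point testing used 10 µM.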

N-Myc-Max complex = target: T1, N-Myc-Max complex (Homo sapiens, UniProt P04198+P61244); assay: Microscale thermophoresis (MST) binding; details: for binding to N-Myc-Max complex (in words): MST
T1 construct: N-Myc (amino acids 309–394) and Max (amino acids 12–93); 6xHis (N); made in house; host or cells: E. coli BL21
Source text: We first performed a microscale thermophoresis (MST) assay to validate the direct binding of VPC-70619 to the recombinant N-Myc-Max complex and to calculate the binding affinity. We evaluated the effect of increasing concentrations of 70619 on the movement of a fluorescent labelled N-Myc-Max complex through a temperature gradient induced by an infrared laser.
(§1) The bHLHLZ domain of N-Myc (amino acids 309–394) and Max (amino acids 12–93) protein sequences were cloned into pETDuet with an N-terminal 6×His. pETDuet-His-NMyc-Max was transformed and expressed in E. coli BL21 and induced with 0.5 mM isopropyl-β-D-thiogalactopyranoside (IPTG) at 16 °C overnight. The cultures were lysed by sonication and combined for purification by immobilized metal ion chromatography (IMAC) with nickel-nitrilotriacetic acid (Ni-NTA) resin. The bound proteins were eluted from the column with 20 mM Tris, pH = 8, 500 mM NaCl, 5% glycerol, 300 mM imidazole, 5 mM βMe, and 0.1 mM PMSF. Size exclusion chromatography with Superdex 75 was used to increase the purity of the N-Myc-Max protein sample. The purified protein complex was used in subsequent BLI and MST experiments.
An MST assay was conducted to determine the binding affinity of 70619 to the purified N-Myc-Max protein complex. N-Myc-Max protein samples were labeled with the red fluorescent dye NT647 using the Monolith NT Protein labeling kit RED-NHS amine-reactive (NanoTemper Technologies, München, Germany); 70619 was serial diluted with 100% DMSO and mixed with the labeled fluorescent N-Myc-Max (final concentration of protein: 5 nM) in the assay reaction buffer (20 mM Tris, pH = 8, 100 mM NaCl, 0.2 mM TCEP, 0.1 mM PMSF, 5% glycerol) starting at 600 μM, with a final concentration of DMSO of 5%. The protein/inhibitor solution was mixed and incubated at room temperature in the dark for 5 min before being filled into the capillaries. […] Analysis of the data for Kd estimation was calculated with the MO Affinity Analysis software from Nanotemper (München, Germany).

[2] = system: N-Myc-Max binding to DNA E-box; assay: Biolayer interferometry (BLI), N-Myc-Max binding to biotinylated E-box DNA; format: biochemical; details: BLI, 0, 50, 100, 200 µM
Source text: To confirm that 70619 could disrupt the binding of N-Myc-Max DBD to DNA, we performed a bio-layer interferometry (BLI) assay where we immobilized biotinylated E-box sequence on streptavidin sensors, and we evaluated recombinant N-Myc-Max binding to the DNA in the presence of increasing concentrations of VPC-70619. […] We observed a similar number of interactions when comparing the ratio of signal per nuclei in the presence or absence of the compound.
as §1
Biotinylated-duplex DNA (Forward: 5′ Biotin-[…], Reverse: […]) was bound to the super-streptavidin (SSA) ForteBio Sensor in the assay buffer [20 mM Tris pH = 8, 150 mM NaCl, 5% glycerol, and 0.2 mM TCEP]. The protein solution was mixed with the serially diluted compound (70619) to a final concentration of 0.1 mg/mL of protein and 200 μM, 100 μM, and 50 μM for the compound. Sample containing N-Myc-Max protein alone was used as a control.

T1 sequence (P04198 379-464 limits assumed): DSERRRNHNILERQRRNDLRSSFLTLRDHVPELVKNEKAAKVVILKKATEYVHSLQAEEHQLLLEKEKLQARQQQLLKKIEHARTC
T1 sequence (P61244 12-93 isoform P61244-2 limits assumed): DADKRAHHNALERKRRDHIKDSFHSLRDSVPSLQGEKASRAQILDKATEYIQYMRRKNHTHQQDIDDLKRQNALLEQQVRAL

N#Cc1ccc(NNC(=O)c2ccc(C#N)c(Cl)c2)c(C(F)(F)F)c1 [compound 70619]
IC50 ([1]; 24 h, treatment for 1 day, 0–25 µM, read-out: IC50 in the luciferase transcription inhibition assay): 4.3 µM | transcription inhibition activity at 5 µM (in words) ([1]; LNCaP-NMYC, 5 µM): restoring the inhibitory activity | inhibition at 10 µM (IMR32 cells): 99.4% | binding to N-Myc-Max complex (in words) (N-Myc-Max complex): bind weakly | binding to N-Myc-Max complex (in words) (N-Myc-Max complex; listed as VPC-70619): somewhat weak affinity | Kd (N-Myc-Max complex; estimate, limited solubility in assay buffer, read-out: dissociation constant): > 130 µM | disruption of DNA binding to (N-)Myc-Max (in words) [2]: disrupt DNA binding at 100 µM | disruption of DNA binding to (N-)Myc-Max (in words) ([2]; listed as VPC-70619): effective at blocking N-Myc-Max binding to DNA in a dose-dependent manner
